Like-named read-outs stand apart in the source and are kept apart here.
Tests used:
[1] = Mouse PK after intravenous application; type: in vivo; conditions: plasma, male NMRI mice, intravenous 30-60 nmol/kg, non-compartmental analysis
Protocol: Pharmacokinetic parameters of the peptides were determined after intravenous application to NMRI mice (Naval Medical Research Institute mice). Male NMRI mice were obtained from Janvier Laboratories (France) weighing 30 g to 40 g. Mice were housed in standard cages with a 12:12 hours light:dark cycle and standard food and water access ad libitum. Each test peptide was dissolved in 50 mM phosphate buffer (pH 7.4)/3.5% mannitol. Intravenous application of 30-60 nmol/kg was performed via the tail vein. Serial blood samples from conscious mice were collected from the saphenous vein in EDTA-containing vials at different time points up to 56 hours post-dosing. Subsequently, plasma was prepared by centrifugation for 5 minutes at approximately 5000 rpm and stored at −20° C. until quantification of the peptide plasma levels by liquid chromatography mass spectrometry (LC-MS). Individual plasma concentration-time profiles were analysed by a non-compartmental approach and the resulting pharmacokinetic parameters were calculated.

[2] = Solubility in 0.1 M phosphate buffer at pH 7; type: physicochemical; conditions: 0.1 M phosphate buffer at pH 7, 10 mg/mL final peptide concentration, shaking 2 hours at room temperature, peptides as TFA-salts, measured sample pH 6.5-7.0; for solubility: read-out: Solubility
[3] = target: T1, hNPY2R (Homo sapiens, UniProt P49146); experiment: hNPY2R CreLuc assay in 0.5% and 100% plasma (HEK-293 CRE-luciferase reporter cells); type: cell-based; conditions: 0.5% human plasma, HEK-293 reporter cells, read-out: hNPY2R 0.5% hP
T1 construct: expressed in transfected cells; host or cells: HEK-293 CRE-luciferase reporter cells
T1 sequence (P49146 1-381): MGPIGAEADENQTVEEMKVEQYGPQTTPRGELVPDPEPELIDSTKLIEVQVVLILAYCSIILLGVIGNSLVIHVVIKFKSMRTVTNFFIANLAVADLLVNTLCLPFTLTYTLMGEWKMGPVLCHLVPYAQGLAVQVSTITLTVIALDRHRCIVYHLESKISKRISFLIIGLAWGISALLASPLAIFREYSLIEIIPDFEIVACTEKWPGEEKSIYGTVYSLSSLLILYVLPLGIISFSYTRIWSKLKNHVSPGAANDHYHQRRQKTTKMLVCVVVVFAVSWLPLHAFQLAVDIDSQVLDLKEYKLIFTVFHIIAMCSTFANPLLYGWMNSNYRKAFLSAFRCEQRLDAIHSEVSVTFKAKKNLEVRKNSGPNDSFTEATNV

[4] = target: T2, hGLP1R (Homo sapiens, UniProt P43220); experiment: hGLP1R CreLuc assay in 0.5% and 100% plasma (HEK-293 CRE-luciferase reporter cells); type: cell-based; conditions: HEK-293 reporter cells
T2 construct: expressed in transfected cells; host or cells: HEK-293 CRE-luciferase reporter cells
T2 sequence (P43220 24-463): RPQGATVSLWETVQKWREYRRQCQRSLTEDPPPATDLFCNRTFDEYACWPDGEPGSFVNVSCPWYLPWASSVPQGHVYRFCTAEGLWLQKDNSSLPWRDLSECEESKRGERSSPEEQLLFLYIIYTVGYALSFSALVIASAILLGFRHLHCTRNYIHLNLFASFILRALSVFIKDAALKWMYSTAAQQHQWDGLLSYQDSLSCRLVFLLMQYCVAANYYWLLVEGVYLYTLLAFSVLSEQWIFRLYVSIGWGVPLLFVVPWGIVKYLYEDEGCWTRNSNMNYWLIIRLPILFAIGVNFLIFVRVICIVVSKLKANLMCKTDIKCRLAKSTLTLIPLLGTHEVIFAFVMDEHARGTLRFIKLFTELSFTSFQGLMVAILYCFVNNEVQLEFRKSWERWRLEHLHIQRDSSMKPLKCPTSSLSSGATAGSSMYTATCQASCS

[5] = target: T3, hGIPR (Homo sapiens, UniProt P48546); experiment: hGIPR CreLuc assay in 0.5% and 100% plasma (CHO CRE-luciferase reporter cells); type: cell-based; conditions: 0.5% human plasma, read-out: hGIPR 0.5% hP
T3 construct: expressed in transfected cells; host or cells: CHO CRE-luciferase reporter cells
T3 sequence (P48546 22-466): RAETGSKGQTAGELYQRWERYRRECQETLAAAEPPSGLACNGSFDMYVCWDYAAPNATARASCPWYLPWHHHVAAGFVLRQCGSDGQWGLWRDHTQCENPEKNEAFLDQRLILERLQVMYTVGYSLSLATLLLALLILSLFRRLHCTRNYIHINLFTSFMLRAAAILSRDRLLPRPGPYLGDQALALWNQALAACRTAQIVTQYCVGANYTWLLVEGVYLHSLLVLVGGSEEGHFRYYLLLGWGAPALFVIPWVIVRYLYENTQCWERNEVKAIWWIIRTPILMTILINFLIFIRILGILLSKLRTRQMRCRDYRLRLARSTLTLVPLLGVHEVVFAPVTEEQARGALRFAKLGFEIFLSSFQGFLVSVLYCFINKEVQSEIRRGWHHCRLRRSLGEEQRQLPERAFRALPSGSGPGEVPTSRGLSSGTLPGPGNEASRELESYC

| MRT [1] [h] | solubility [2] [µg/mL] | EC50 [3] [nM] | EC50 ([4]; 0.5% human plasma, read-out: hGLP1R 0.5% hP) [nM] | EC50 ([4]; 100% human plasma, read-out: hGLP1R 100% hP) [nM] | EC50 [5] [nM] | solubility at 2 h [2] [µg/mL] | SMILES |
| --- | --- | --- | --- | --- | --- | --- | --- |
| 7 | 4200 | – | – | – | – | – | CC[C@H](C)[C@H](NC(=O)[C@H](CC(C)C)NC(=O)[C@H](Cc1c[nH]cn1)NC(=O)[C@H](CCCNC(=N)N)NC(=O)[C@@H](NC(=O)[C@H](Cc1ccccc1)NC(=O)[C@H](CCC(=O)O)NC(=O)C(C)(C)NC(=O)[C@H](CCC(N)=O)NC(=O)[C@H](C)NC(=O)[C@H](CCC(N)=O)NC(=O)[C@H](CCCCN)NC(=O)[C@H](CCC(=O)O)NC(=O)[C@H](CC(C)C)NC(=O)C(C)(C)NC(=O)[C@@H](NC(=O)[C@H](CO)NC(=O)[C@H](Cc1ccc(O)cc1)NC(=O)[C@H](CC(=O)O)NC(=O)[C@H](CO)NC(=O)[C@@H](NC(=O)[C@H](Cc1ccccc1)NC(=O)[C@@H](NC(=O)CNC(=O)[C@H](CCC(=O)O)NC(=O)C(C)(C)NC(=O)[C@@H](N)Cc1ccc(O)cc1)[C@@H](C)O)[C@@H](C)O)[C@@H](C)CC)C(C)C)C(=O)N[C@@H](CC(N)=O)C(=O)N[C@@H](CCCCNC(=O)CC[C@H](NC(=O)CC[C@H](NC(=O)CC[C@H](NC(=O)CC[C@H](NC(=O)CCCCCCCCCCCCCCCCC(=O)O)C(=O)O)C(=O)O)C(=O)O)C(=O)O)C(=O)NC(C)(C)C(=O)N[C@H](C(=O)N[C@@H](CCCNC(=N)N)C(=O)N[C@@H](CCC(N)=O)C(=O)N[C@@H](CCCNC(=N)N)C(=O)N[C@@H](Cc1ccc(O)cc1)C(N)=O)[C@@H](C)O [Compound 79, Y-Aib-E-G-T-F-T-S-D-Y-S-I-Aib-L-E-K-Q-A-Q-Aib-E-F-V-R-H-L-I-N-K(1,3)-Aib-T-R-Q-R-Y-NH2.C18DA-gGlu-gGlu-gGlu-gGlu(1,2)] |
| 4.6 | 4800 | – | – | – | – | – | CC[C@H](C)[C@H](NC(=O)[C@H](CC(C)C)NC(=O)[C@H](Cc1c[nH]cn1)NC(=O)[C@H](CCCNC(=N)N)NC(=O)[C@@H](NC(=O)[C@H](Cc1ccccc1)NC(=O)[C@H](C)NC(=O)C(C)(C)NC(=O)[C@H](CCC(N)=O)NC(=O)[C@H](C)NC(=O)[C@H](CCC(N)=O)NC(=O)[C@H](CCCCN)NC(=O)[C@H](CCC(=O)O)NC(=O)[C@H](CC(C)C)NC(=O)C(C)(C)NC(=O)[C@@H](NC(=O)[C@H](CO)NC(=O)[C@H](Cc1ccc(O)cc1)NC(=O)[C@H](CC(=O)O)NC(=O)[C@H](CO)NC(=O)[C@@H](NC(=O)[C@H](Cc1ccccc1)NC(=O)[C@@H](NC(=O)CNC(=O)[C@H](CCC(=O)O)NC(=O)C(C)(C)NC(=O)[C@@H](N)Cc1ccc(O)cc1)[C@@H](C)O)[C@@H](C)O)[C@@H](C)CC)C(C)C)C(=O)N[C@@H](CC(N)=O)C(=O)N[C@@H](CCCCNC(=O)CCCCCNC(=O)CC[C@H](NC(=O)CC[C@H](NC(=O)CC[C@H](NC(=O)CC[C@H](NC(=O)CC[C@H](NC(=O)CCCCCCCCCCCCCCCCC(=O)O)C(=O)O)C(=O)O)C(=O)O)C(=O)O)C(=O)O)C(=O)N[C@@H](CC(C)C)C(=O)N[C@H](C(=O)N[C@@H](CCCNC(=N)N)C(=O)N[C@@H](CCC(N)=O)C(=O)N[C@@H](CCCNC(=N)N)C(=O)N[C@@H](Cc1ccc(O)cc1)C(N)=O)[C@@H](C)O [Compound 69, Y-Aib-E-G-T-F-T-S-D-Y-S-I-Aib-L-E-K-Q-A-Q-Aib-A-F-V-R-H-L-I-N-K(1,3)-L-T-R-Q-R-Y-NH2.C18DA-gGlu-gGlu-gGlu-gGlu-gGlu-AHX(1,2)] |
| 16.4 | 8600 | – | – | – | – | – | CC[C@H](C)[C@H](NC(=O)[C@H](CC(C)C)NC(=O)[C@H](Cc1c[nH]cn1)NC(=O)[C@H](CCCNC(=N)N)NC(=O)[C@@H](NC(=O)[C@H](Cc1ccccc1)NC(=O)[C@H](C)NC(=O)C(C)(C)NC(=O)[C@H](CCC(N)=O)NC(=O)[C@H](C)NC(=O)[C@H](CCC(N)=O)NC(=O)[C@H](CCCCN)NC(=O)[C@H](CC(=O)O)NC(=O)[C@H](CC(C)C)NC(=O)C(C)(C)NC(=O)[C@@H](NC(=O)[C@H](CO)NC(=O)[C@H](Cc1ccc(O)cc1)NC(=O)[C@H](CC(=O)O)NC(=O)[C@H](CO)NC(=O)[C@@H](NC(=O)[C@H](Cc1ccccc1)NC(=O)[C@@H](NC(=O)CNC(=O)[C@H](CCC(=O)O)NC(=O)C(C)(C)NC(=O)[C@@H](N)Cc1ccc(O)cc1)[C@@H](C)O)[C@@H](C)O)[C@@H](C)CC)C(C)C)C(=O)N[C@@H](CC(N)=O)C(=O)N[C@@H](CCCCNC(=O)[C@@H](N)CCCCNC(=O)CC[C@H](NC(=O)[C@H](CCC(=O)O)NC(=O)CC[C@H](NC(=O)CC[C@H](NC(=O)CC[C@H](NC(=O)CC[C@H](NC(=O)CCCCCCCCCCCCCCCCCCC(=O)O)C(=O)O)C(=O)O)C(=O)O)C(=O)O)C(=O)O)C(=O)NC(C)(C)C(=O)N[C@H](C(=O)N[C@@H](CCCNC(=N)N)C(=O)N[C@@H](CCC(N)=O)C(=O)N[C@@H](CCCNC(=N)N)C(=O)N[C@@H](Cc1ccc(O)cc1)C(N)=O)[C@@H](C)O [Compound 74, Y-Aib-E-G-T-F-T-S-D-Y-S-I-Aib-L-D-K-Q-A-Q-Aib-A-F-V-R-H-L-I-N-K(1,3)-Aib-T-R-Q-R-Y-NH2.C20DA-gGlu-gGlu-gGlu-gGlu-gGlu-gGlu-eLys(1,2)] |
| – | – | 19.9 | 0.3 | 3.4 | 0.4 | 8000 | CC[C@H](C)[C@H](NC(=O)[C@H](CC(C)C)NC(=O)[C@H](Cc1c[nH]cn1)NC(=O)[C@H](CCCNC(=N)N)NC(=O)[C@@H](NC(=O)[C@H](Cc1ccccc1)NC(=O)[C@H](C)NC(=O)C(C)(C)NC(=O)[C@H](CCC(N)=O)NC(=O)[C@H](C)NC(=O)[C@H](CCC(N)=O)NC(=O)[C@H](CCCCN)NC(=O)[C@H](CC(=O)O)NC(=O)[C@H](CC(C)C)NC(=O)C(C)(C)NC(=O)[C@@H](NC(=O)[C@H](CO)NC(=O)[C@H](Cc1ccc(O)cc1)NC(=O)[C@H](CC(=O)O)NC(=O)[C@H](CO)NC(=O)[C@@H](NC(=O)[C@H](Cc1ccccc1)NC(=O)[C@@H](NC(=O)CNC(=O)[C@H](CCC(=O)O)NC(=O)C(C)(C)NC(=O)[C@@H](N)Cc1ccc(O)cc1)[C@@H](C)O)[C@@H](C)O)[C@@H](C)CC)C(C)C)C(=O)N[C@@H](CC(N)=O)C(=O)N[C@@H](CCCCNC(=O)[C@@H](N)CCCCNC(=O)CC[C@H](NC(=O)CC[C@H](NC(=O)CC[C@H](NC(=O)CC[C@H](NC(=O)CC[C@H](NC(=O)CC[C@H](NC(=O)CCCCCCCCCCCCCCCCC(=O)O)C(=O)O)C(=O)O)C(=O)O)C(=O)O)C(=O)O)C(=O)O)C(=O)NC(C)(C)C(=O)N[C@H](C(=O)N[C@@H](CCCNC(=N)N)C(=O)N[C@@H](CCC(N)=O)C(=O)N[C@@H](CCCNC(=N)N)C(=O)N[C@@H](Cc1ccc(O)cc1)C(N)=O)[C@@H](C)O [Compound 105, Y-Aib-E-G-T-F-T-S-D-Y-S-I-Aib-L-D-K-Q-A-Q-Aib-A-F-V-R-H-L-I-N-K(1,3)-Aib-T-R-Q-R-Y-NH2.C18DA-gGlu-gGlu-gGlu-gGlu-gGlu-gGlu-eLys(1,2)] |

Reference: US20250382344A1, “Soluble GLP1/GIP/NPY2 Receptor Triple Agonists” (Boehringer Ingelheim International GmH, priority 2024, published 2025)
